# Results published in US20220403001A1, “PDE5 DERIVED REGULATORY CONSTRUCTS AND METHODS OF USE IN IMMUNOTHERAPY” (Obsidian Therapeutics, Inc., priority 2018, published 2022).
# Where two headings read alike, the source gives them in different places.
# What was measured:
# [1] = Plasma PK of Tadalafil and Vardenafil after a single oral dose (LC/MS/MS); assay type: in vivo, mice; settings: mouse, read-out: Plasma levels; for concentration at 1 h: 1 hour post dose; for concentration at 2 h: 2 hours post dose; for concentration at 4 h: 4 hours post dose; for concentration at 8 h: 8 hours post dose; for concentration at 12 h: 12 hours post dose; for concentration at 16 h: 16 hours post dose; for concentration at 24 h: 24 hours post dose
# Procedure: Plasma samples collected over time and PDE5 inhibitor concentrations were determined by LC/MS/MS (Table 60). The Vardenafil/Tadalafil levels detected in the plasma declined over time and were commensurate with the initial dose orally administered to the animal.
# [2] = approved dose, cited from earlier work; for Cmax: PO
# [3] = tested on: hPDE5 mutants; assay: GFP expression (MFI) by FACS in HEK293 cells expressing hPDE5 constructs; settings: read-out: EC50 of ligand dependent stabilization; HEK293 cells expressing OT-001076, OT-001083, OT-001084; 48 h
# Procedure: The mutant library was ligated in frame with an AcGFP reporter at C-terminus and cloned into pLVX-IRES—Puro vectors. […] DNA was extracted from the cell pool, cloned into vectors, and transformed into E. coli. Individual clones were sequenced and cloned in frame with a linker [sequence] […] HEK293 cells were transduced with individual clones and selected with puromycin.
# The GFP expression in cells expressing hPDE5 constructs was measured by FACS.
# The stability of hPDE5 mutants was measured using FACS and mean fluorescence intensity (MFI) of GFP was calculated.
# [4] = biological target: T1, hPDE5 mutants (Homo sapiens, UniProt O76074); assay: GFP MFI by FACS in HCT116 cells transduced with hPDE5 constructs; assay type: cell-based; settings: for Vardenafil Stabilization ratio / Sildenafil Stabilization ratio / GFP by FACS, Sildenafil 10 μM / GFP by FACS, Vardenafil 1 μM: hotspot constructs; for Vardenafil Stabilization ratio: 1 μM Vardenafil; for Sildenafil Stabilization ratio: 10 μM Sildenafil; for GFP by FACS, Sildenafil 10 μM / GFP by FACS, Vardenafil 1 μM: HCT116
# [5] = tested on: hPDE5 mutants; assay: as above; assay type: cell-based, human; settings: for Sildenafil Destabilizing mutation coefficient / Vardenafil Destabilizing mutation coefficient / GFP by FACS, Sildenafil 0 μM (DMSO) / GFP by FACS, Vardenafil 0 μM (DMSO): hotspot constructs; for Sildenafil Destabilizing mutation coefficient: DMSO control of Sildenafil; for Sildenafil Destabilizing mutation coefficient / Vardenafil Destabilizing mutation coefficient: vs OT-001075; for Vardenafil Destabilizing mutation coefficient: DMSO control of Vardenafil; for GFP by FACS, Sildenafil 0 μM (DMSO): HCT116, DMSO control of Sildenafil; for GFP by FACS, Vardenafil 0 μM (DMSO): HCT116, DMSO control of Vardenafil; for MFI: 48 hours, HCT 116 cells
# [6] = biological target: T1, hPDE5 mutants; assay: Western blot of AcGFP/GFP protein levels in HCT 116 cells expressing hPDE5 mutants; assay type: cell-based; parameters: GFP protein levels (western blot); fused on or other part: AcGFP reporter through a linker; settings: vardenafil vs DMSO, HCT 116, R732 mutants
# Procedure: Protein expression analysis of the combination mutants was performed in parallel via western blot. […] GAPDH levels were also analyzed to ensure even protein loading.
# [7] = NSG mice, single oral dose 10 mg/kg
# [8] = NSG mice, single oral dose 30 mg/kg
# [9] = NSG mice, single oral dose 100 mg/kg
# [10] = CD-1 mice, single oral dose 10 mg/kg
# [11] = CD-1 mice, single oral dose 100 mg/kg
# [12] = Table 44, Vardenafil 0.01 μM, 48 h, HCT 116
# [13] = Table 44, Vardenafil 0.04 μM, 48 h, HCT 116
# [14] = Table 44, Vardenafil 3.33 μM, 48 h, HCT 116
# [15] = Table 44, Vardenafil 10 μM, 48 h, HCT 116
# [16] = Table 44, Vardenafil 30 μM, 48 h, HCT 116
# [17] = Table 44, Vardenafil 1000 μM, 48 h, HCT 116
# [18] = Table 45, Sildenafil 0.01 μM, 48 h, HCT 116
# [19] = Table 45, Sildenafil 0.04 μM, 48 h, HCT 116
# [20] = Table 45, Sildenafil 3.33 μM, 48 h, HCT 116
# [21] = Table 45, Sildenafil 10 μM, 48 h, HCT 116
# [22] = Table 45, Sildenafil 30 μM, 48 h, HCT 116
# [23] = Table 45, Sildenafil 1000 μM, 48 h, HCT 116
# [24] = Tadalafil 0.01 μM, 48 hours, HCT 116 cells
compound,measurement,setting,value
CN1CC(=O)N2[C@H](c3ccc4c(c3)OCO4)c3[nH]c4ccccc4c3C[C@@H]2C1=O [Tadalafil],concentration at 1 h,[1]; [7],6.8 µM
same,concentration at 2 h,[1]; [7],5.4 µM
same,concentration at 4 h,[1]; [7],3.9 µM
same,concentration at 8 h,[1]; [7],0.9 µM
same,concentration at 12 h,[1]; [7],0.1 µM
same,concentration at 16 h,[1]; [7],0 µM
same,concentration at 1 h,[1]; [8],19.8 µM
same,concentration at 2 h,[1]; [8],17.6 µM
same,concentration at 4 h,[1]; [8],12.1 µM
same,concentration at 8 h,[1]; [8],4.4 µM
same,concentration at 12 h,[1]; [8],0.5 µM
same,concentration at 16 h,[1]; [8],0.1 µM
same,concentration at 24 h,[1]; [8],0 µM
same,concentration at 1 h,[1]; [9],53.3 µM
same,concentration at 2 h,[1]; [9],44.7 µM
same,concentration at 4 h,[1]; [9],34.8 µM
same,concentration at 8 h,[1]; [9],13.7 µM
same,concentration at 12 h,[1]; [9],5.6 µM
same,concentration at 16 h,[1]; [9],1.5 µM
same,concentration at 24 h,[1]; [9],0.1 µM
same,Cmax,[2],1.5 µM
same,Duration of action,[2],24 to 36 h
CCCc1nc(C)c2c(=O)[nH]c(-c3cc(S(=O)(=O)N4CCN(CC)CC4)ccc3OCC)nn12 [Vardenafil],concentration at 1 h,[1]; [10],0.16 µM
same,concentration at 2 h,[1]; [10],0.03 µM
same,concentration at 4 h,[1]; [10],0.02 µM
same,concentration at 1 h,[1]; [11],7.81 µM
same,concentration at 2 h,[1]; [11],3.04 µM
same,concentration at 4 h,[1]; [11],3.32 µM
same,concentration at 8 h,[1]; [11],1.18 µM
same,concentration at 12 h,[1]; [11],0.04 µM
same,Cmax,[2],0.1 µM
same,EC50,[3],0.1 to 0.3 µM
OT-001196: hPDE5 R732S AcGFP construct,Vardenafil Stabilization ratio,[4],0.7
same,Sildenafil Stabilization ratio,[4],0.98
same,"GFP by FACS, Sildenafil 10 μM",[4],746
same,"GFP by FACS, Vardenafil 1 μM",[4],399
same,Sildenafil Destabilizing mutation coefficient,[5],0.77
same,Vardenafil Destabilizing mutation coefficient,[5],3.52
same,"GFP by FACS, Sildenafil 0 μM (DMSO)",[5],760
same,"GFP by FACS, Vardenafil 0 μM (DMSO)",[5],566
same,GFP protein levels (western blot),[6],strong stabilization of GFP levels
OT-001197: hPDE5 R732T AcGFP construct,MFI,[4]; [12],2854
same,MFI,[4]; [13],6862
same,MFI,[4]; [14],41788
same,MFI,[4]; [15],48946
same,MFI,[4]; [16],67364
same,MFI,[4]; [17],67364
same,MFI,[4]; [18],856
same,MFI,[4]; [19],1041
same,MFI,[4]; [20],6896
same,MFI,[4]; [21],12407
same,MFI,[4]; [22],21258
same,MFI,[4]; [23],21258
same,MFI,[4]; [24],825
same,Vardenafil Stabilization ratio,[4],1.15
same,Sildenafil Stabilization ratio,[4],1.98
same,"GFP by FACS, Sildenafil 10 μM",[4],546
same,"GFP by FACS, Vardenafil 1 μM",[4],270
same,MFI,[5]; Tadalafil 11.11 μM,12843
same,MFI,[5]; Tadalafil 33.33 μM,17164
same,MFI,[5]; Tadalafil 100 μM,21113
same,MFI,[5]; Tadalafil 1000 μM,21113
same,Sildenafil Destabilizing mutation coefficient,[5],0.28
same,Vardenafil Destabilizing mutation coefficient,[5],1.46
same,"GFP by FACS, Sildenafil 0 μM (DMSO)",[5],276
same,"GFP by FACS, Vardenafil 0 μM (DMSO)",[5],235
same,GFP protein levels (western blot),[6],strong stabilization of GFP levels
OT-001198: hPDE5 R732D AcGFP construct,MFI,[4]; [12],4336
same,MFI,[4]; [13],7350
same,MFI,[4]; [14],44499
same,MFI,[4]; [15],50822
same,MFI,[4]; [16],70645
same,MFI,[4]; [17],70645
same,MFI,[4]; [18],1192
same,MFI,[4]; [19],1270
same,MFI,[4]; [20],6171
same,MFI,[4]; [21],13971
same,MFI,[4]; [22],21120
same,MFI,[4]; [23],21120
same,MFI,[4]; [24],1163
same,Vardenafil Stabilization ratio,[4],1.44
same,Sildenafil Stabilization ratio,[4],1.32
same,"GFP by FACS, Sildenafil 10 μM",[4],394
same,"GFP by FACS, Vardenafil 1 μM",[4],422
same,MFI,[5]; Tadalafil 11.11 μM,10583
same,MFI,[5]; Tadalafil 33.33 μM,16956
same,MFI,[5]; Tadalafil 100 μM,22630
same,MFI,[5]; Tadalafil 1000 μM,22630
same,Sildenafil Destabilizing mutation coefficient,[5],0.3
same,Vardenafil Destabilizing mutation coefficient,[5],1.83
same,"GFP by FACS, Sildenafil 0 μM (DMSO)",[5],298
same,"GFP by FACS, Vardenafil 0 μM (DMSO)",[5],294
same,GFP protein levels (western blot),[6],strong stabilization of GFP levels
